pIC50: −log10 of the molar value.
System: Plasmodium berghei
Test: Luciferase/luciferin-expressing antifolate-resistant parasites were used to infect a culture of HepG2 cells that were pre-incubated with compounds. Infected hepatocytes emit light due to the luciferase reaction. Assay results are presented as the percent inhibition of light emission compared to control. […]
Assay type: functional
Settings: sporozoite; for pIC50: read-out: LUCIFERASE INFECTION ASSAY - IC50; for IC90: read-out: LUCIFERASE INFECTION ASSAY - IC90

Compound	pIC50	IC90
Cc1cc(O)c(CN2CCN(C(=O)C34CC5CC(CC(C5)C3)C4)CC2)cc1C	< 5.00	> 10 µM
CC(c1ccccc1)N(C)C(=O)c1nn(-c2ccccc2)c2c1CCC2 (stereo unspecified)	< 5.00	> 10 µM
Cc1ccc(Nc2nc(C(F)(F)F)nc3ccccc23)cc1S(=O)(=O)N(C)C	< 5.00	> 10 µM
CCOc1cc2c(cc1/C=C/C(=O)c1ccc3[nH]c(=O)[nH]c3c1)OC(C)C2 (stereo unspecified)	< 5.00	> 10 µM
O=C1CN(C(=O)CNC(c2ccccc2)c2cccs2)c2ccccc2N1 (stereo unspecified)	< 5.00	> 10 µM
O=C(c1ccccc1)c1ccc(OCc2coc(-c3ccccc3)n2)cc1	< 5.00	> 10 µM
N#Cc1ccnc(N2CCN(c3nc(CSc4ccccc4)nc4sc5c(c34)CCC5)CC2)c1	< 5.00	> 10 µM
Cc1nn(-c2ccccc2)c(C)c1C(=O)C(=O)NC(C)c1ccc(S(N)(=O)=O)cc1 (stereo unspecified)	< 5.00	> 10 µM
CCOc1ncccc1C(=O)N(C)Cc1cn(-c2ccccc2)nc1-c1ccccc1	5.36	5.34 µM
CC1(c2ccco2)NC(=O)N(NC(=O)c2ccc3ccccc3n2)C1=O (stereo unspecified)	< 5.00	> 10 µM
O=C(CCSc1n[nH]c(=O)n1C1CC1)Nc1ccccc1	< 5.00	> 10 µM
CCOC(=O)C1SC(C(C#N)c2ccccn2)=NC1(c1ccc(C)cc1)C(F)(F)F (stereo unspecified)	< 5.00	> 10 µM
CCCOc1c(Cl)cc(C(=O)N2CCN(C)c3nc4ccccc4nc32)cc1OCC	< 5.00	> 10 µM
CC(C)Cn1c(N)c(C(=O)CSc2nnc(COc3ccccc3Cl)o2)c(=O)n(C)c1=O	5.48	3.85 µM
O=C(Nc1ccc(-c2csc(N3CCOCC3)n2)cc1)c1ccc(Br)c([N+](=O)[O-])c1	< 5.00	> 10 µM
CC(CNC(=O)C1CCN(S(=O)(=O)c2cccs2)CC1)c1nc2ccccc2n1C(F)F (stereo unspecified)	< 5.00	> 10 µM
CCOc1cc(CN(CC)CC(=O)Nc2c(F)cccc2F)ccc1OCc1cccs1	< 5.00	> 10 µM
Cc1nc(-c2ccc(CNC(=O)COc3ccccc3-c3ccccc3)o2)cs1	< 5.00	> 10 µM
Cc1nn(C)c2nc(C3CC3)cc(C(=O)Nc3ccccc3C(=O)NC(C)c3ccccc3)c12 (stereo unspecified)	5.05	> 10 µM
Cc1ccc2nc(CNc3cc(Cl)ccc3N3CCCC3)cc(=O)n2c1	< 5.00	> 10 µM

Compound	pIC50	IC90
CCOC(=O)c1sc2nc(C)nc(N3CC=C(c4c[nH]c5ncccc45)CC3)c2c1C	< 5.00	> 10 µM
CCOc1cc2c(cc1CN(Cc1nc(=O)c3cc(-c4ccccc4)sc3[nH]1)Cc1nc(=O)c3cc(-c4ccccc4)sc3[nH]1)OC(C)C2 (stereo unspecified)	< 5.00	> 10 µM
COC(=O)Cc1cc(=O)nc(SCC(=O)c2cc(C)n(-c3ccc(C(C)C)cc3)c2C)[nH]1	< 5.00	> 10 µM
CCN(CC(=O)NC(C)(C)C)C(=O)c1cc(OC)c(Br)c(OC)c1	< 5.00	> 10 µM
CCOC(=O)c1sc2cccc(F)c2c1CSc1nc2sccc2c(=O)n1C	5.39	9.27 µM
CC(C)=CC(=O)NC(c1ccccc1)c1ccc(Cl)cc1 (stereo unspecified)	< 5.00	> 10 µM
COc1ccc(NC(=O)C(C)N2CCN(CCc3ccccc3)CC2)cc1Cl (stereo unspecified)	< 5.00	> 10 µM
CN(c1ccccc1)S(=O)(=O)c1cccc(C(=O)Nc2ccc(-c3cn4c(n3)CCC4)cc2)c1	< 5.00	> 10 µM
Cc1nc(COc2ccc(F)cc2)sc1C(=O)Nc1nc2c(s1)CC(C)CC2 (stereo unspecified)	< 5.00	> 10 µM
C1CCN(Cc2nc(NC3CCN(C4CC4)CC3)c3c4c(sc3n2)CCCC4)CC1	< 5.00	> 10 µM
Cc1cccc(N2CCN(C(=O)/C=C/c3cnn(-c4ccccc4)c3)CC2)c1	< 5.00	> 10 µM
N#Cc1cccc(NC(=O)c2cc(-c3cccnc3)nc3c2cnn3Cc2ccccc2Cl)c1	< 5.00	> 10 µM
COC(=O)c1ccc2c(=O)n(-c3ccccc3)c(SC3CCCCC3=O)nc2c1 (stereo unspecified)	< 5.00	> 10 µM
CN(Cc1ccccc1N1CCCCC1)C(=O)c1ccc(NC(=O)C2CC2)cc1	5.54	3.37 µM
Cc1oc(-n2cccc2)c(C#N)c1C(=O)Nc1nc(-c2ccccn2)cs1	5.03	> 10 µM
Cc1ccc(NS(=O)(=O)c2ccc(C(=O)NNC(=O)COc3ccc(C#N)cc3)cc2)cc1	< 5.00	> 10 µM
CC(C)(C)OC(=O)NCc1ccc(C(=O)NNC(=O)c2ccccc2O)cc1	< 5.00	> 10 µM
CCN(CC(=O)Nc1ccc2c(c1)OCCO2)C(=O)CCCc1nc2ccccc2s1	< 5.00	> 10 µM
COc1ccc(C(C)(C)C)cc1NC(=O)c1sc2nc3n(c(=O)c2c1C)CCC3	< 5.00	> 10 µM
CCNC(=O)Cn1c(=O)/c(=C\c2ccccc2Cl)s/c1=C\C(=O)c1ccccc1C	< 5.00	> 10 µM

Compound	pIC50	IC90
O=C(c1ccco1)N1CCC(Nc2nc(-c3cccs3)nc3sc4c(c23)CCCC4)CC1	< 5.00	> 10 µM
Cc1ccc(-c2c(C)sc3[nH]c(CN(Cc4nc(=O)c5c(-c6ccc(C)cc6)c(C)sc5[nH]4)Cc4ccccc4CN4CCCC4)nc(=O)c23)cc1	< 5.00	> 10 µM
COc1cc(C(=O)N(C)Cc2ccccc2N2CCOCC2)cc(OC)c1OC	< 5.00	> 10 µM
CCOC(=O)/C(=C\c1ccc(Cl)c([N+](=O)[O-])c1)C1=Nn2c(nnc2-c2cccs2)SC1	< 5.00	> 10 µM
Cc1nn(C)c(Cl)c1C=C(C(=O)NCCc1ccccc1)C(=O)NCCc1ccccc1	< 5.00	> 10 µM
N#CC1=C2C=CC=CN2C(c2ccccc2)(C(F)(F)F)N=C1SCC(=O)Nc1ccc(Cl)c(Cl)c1 (stereo unspecified)	< 5.00	> 10 µM
O=C(CN1CCC(n2c(=O)[nH]c3ccccc32)CC1)NCCC1=CCCCC1	< 5.00	> 10 µM
O=C(Nc1nc2c(s1)CCCC2)c1c[nH]c(=S)n1-c1ccccc1	< 5.00	> 10 µM
Cc1[nH]c(=O)[nH]c(=O)c1C(=O)/C=C/c1cn(-c2ccccc2)nc1-c1cc2ccccc2o1	< 5.00	> 10 µM
Cc1ccc(-c2nnc(SCC(=O)Nc3ccccc3C(=O)NCc3ccccc3)[nH]2)cc1	< 5.00	> 10 µM
COc1cc(OC)cc(C(=O)NNC(=O)CCC(=O)c2ccc(Cl)s2)c1	< 5.00	> 10 µM
NS(=O)(=O)c1ccc(N2CCOCC2)c(C(=O)NCCOc2ccc3ccccc3c2)c1	< 5.00	> 10 µM
CC(=O)N(c1nc(/C=C/C(=O)c2ccc(F)c(F)c2)cs1)c1c(C)cccc1C	< 5.00	> 10 µM
Cc1ccc(/C=C(\C#N)c2nc(=O)c3c4c(sc3[nH]2)CC(C)CC4)o1 (stereo unspecified)	< 5.00	> 10 µM
O=C(Nc1ccc2c(c1)nc1n2CCCCC1)C1CC=CCC1 (stereo unspecified)	< 5.00	> 10 µM
CNC(=O)c1cccc(NC(=O)c2cc(-c3ccco3)nc3c2cnn3C(C)C)c1	< 5.00	> 10 µM
Cc1nn(-c2ccccc2)c(Oc2ccc(Br)cc2)c1CNC1CCC(O)CC1 (stereo unspecified)	< 5.00	> 10 µM
O=C(NCCN1C(=O)S/C(=C\c2ccccc2Cl)C1=O)c1ccc(Br)o1	< 5.00	> 10 µM
